According to US4748161A, “Triterpenyl esters of organic acids and hypolipidemic agents composed of them” (Amano Pharmaceutical Co., Ltd., priority 1984, dated 1988):
Read-outs that look alike come from different tables or passages of the source.

Experiments:
[1] = Body weight of rats in method B; set-up: species or system male Wistar strain rats; conditions: rat, in vivo
Method: (§1) Male Wistar strain rats (100±1 g, each 8 rats were formed into a group except that the control group fed with a hyperlipidemic diet was formed of 16 rats) were used as test animals. A powdery diet (CE-2, supplied by Clea Japan, Inc.) was used as ordinary diet. The hyperlipidemic diet was prepared by fortifying the ordinary diet with cholesterol (1%) and cholic acid (0.5%). Each test compound (1%) for administration was admixed with the hyperlipidemic diet. Each two rats were kept in a cage and given the prescribed diet and water ad libitum. Thus the rats were fed for 4 weeks at a constant temperature of 23±1° C. and a constant R.H. of 55±5%. Finally, the rats were fasted from food except water for 16 hours (from 4 p.m. of the 28th test day to 8 a.m. of the 29th test day), and under anesthesia with pentbarbital sodium (tradename: Nembutal), blood was taken from each rat through the descending abdominal arota. Then, TC, HDL-C, TG, PL, and LPO in the serum were measured in the following manner.

[2] = tested on: serum lipids and serum lipid hydroperoxide; experiment: Pharmacological test method B for anti-hyperlipidemic activity (serum lipids, 4 weeks feeding); type: in vivo, male Wistar strain rats; set-up: AI Diff.: unit not given here; conditions: for AI [(TC - HDL-C)/(HDL-C)] / HDL-C in serum / LPO in serum / PL in serum / TC in serum / TG in serum: 1% in hyperlipidemic diet, 4 weeks; for change in vivo at 1 % in diet: Rattus norvegicus, po, 672 h; for change in vivo at 1 % in diet / AI Diff. / HDL-C Diff. / LPO Diff. / PL Diff. / TG Diff.: versus control group; for TG % of diff. (Table 20) / TG Diff. (Table 20): Table 20, versus control group; for HDL-C rise compared with normal diet group: versus normal diet group
Method: Pharmacological test method B for anti-hyperlipidemic acitivity (the term "method B" was used in the present specification)
as §1
A TC kit-K (supplied by Nippon Shoji Kaisha, Ltd.) was used. The principle of this determination is as follows: The ester of cholesterol in the serum is hydrolyzed with cholesterol-ester hydrolase into free cholesterol and fatty acids. All the free cholesterol is oxidized with cholesterol oxydase to form Δ^4 -cholestenone and hydrogen peroxide. Phenol and 4-aminoantipyrin are oxidatively condensed together by the formed hydrogen peroxide and peroxydase. The produced red quinone coloring matter is measured by colorimetry for absorbance at 500 nm using a spectrophotometer, thereby determining the TC:
The color-developing liquid (3.0 ml) is well mixed with the sample serum (0.02 ml). The mixture once heated at 37° C. for 15 minutes, is measured for absorbance at 500 nm with a spectrophotometer. The found absorbance is denoted by EA. On the other hand, the color-developing liquid (3.0 ml) is well mixed with the standard solution. The mixture is treated and measured for absorbance at 500 nm in the same manner as the above. This found absorbance is denoted by ES. Both EA and ES are determined with reference to the value of the blank test conducted using the color-developing liquid (3.0 ml) alone. [formula]
An HDL-C kit-N (supplied by Nippon Shoji Kaisha, Ltd.) was used. […] (VLDL) and lo density lipoprotein (LDL) in the serum is precipitated by the action of heparin. The precipitate is separated by centrifugation. High density lipoprotein (HDL) is dissolved in the separated supernatant. Esters of cholesterol in this fraction is hydrolyzed with cholesterol-ester hydrolase into free cholesterol and fatty acids. All the free cholesterol is oxidized with cholesterol oxydase to form Δ^4 -cholestenone and hydrogen peroxide. Phenol and 4-aminoantipyrine are oxidatively condensed together by the formed hydrogen peroxide and peroxydase. The produced red quinone coloring matter is measured by colorimetry for absorbance at 500 nm using a spectrophotometer, thereby determining the HDL-C.
A PL kit-K (supplied by Nippon Shoji Kaisha, Ltd.) was used for the determination. Lecithin, sphingomyelin, and lysolecithin are decomposed by phospholipase D into choline and phosphatidic acid, N-acylsphingosyl phosphate, or lysophosphatidic acid, respectively. The resulting choline is quantitatively decomposed by choline oxydase into hydrogen peroxide and betaine. With this hydrogen peroxide, and aid of peroxydase, phenol and 4-aminoantipyrin are condensed into red quinone pigment, then the absorbance at 500 nm of which is measured with a spectrophotometer, thereby determining the PL. […]

## CCOc1ccc(N)cc1C=CC(=O)OC1CCC23CC24CCC2(C)C(C(C)CCC=C(C)C)CCC2(C)C4CCC3C1(C)C (centres unmarked) [Example 183, Cycloartenyl ester of 5-amino-2-ethoxycinnamic acid]
[1]
  Body weight during feed period, 1st day: 105 ± 3.9 g
  Body weight during feed period, 8th day: 142 ± 8.8 g
  Body weight during feed period, 15th day: 189 ± 11.9 g
  Body weight during feed period, 22nd day: 239 ± 16.5 g
  Body weight during feed period, 28th day: 268 ± 20.9 g
  Body weight just before blood sampling, 29th day: 257 ± 18.8 g
[2]
  AI [(TC - HDL-C)/(HDL-C)]: 7.356
  HDL-C in serum: 29.2 mg/dL
  LPO in serum: 2.08 nmol/mL
  PL in serum: 125.7 mg/dL
  TC in serum: 244.0 mg/dL
  TG in serum: 65.2 mg/dL

## C=C(CCC(C)C1CCC2(C)C3CCC4C(C)(C)C(OC(=O)C(C)=Cc5ccc(N)c(OC)c5)CCC45CC35CCC12C)C(C)C (stereo not drawn) [Example 191, 24-Methylenecycloartanyl ester of 4-amino-3-methoxy-α-methylcinnamic acid]
[1]
  Body weight during feed period, 1st day: 104 ± 3.7 g
  Body weight during feed period, 8th day: 142 ± 9.6 g
  Body weight during feed period, 15th day: 188 ± 12.9 g
  Body weight during feed period, 22nd day: 239 ± 14.9 g
  Body weight during feed period, 28th day: 268 ± 21.7 g
  Body weight just before blood sampling, 29th day: 257 ± 20.6 g
[2]
  AI [(TC - HDL-C)/(HDL-C)]: 5.634
  HDL-C in serum: 28.4 mg/dL
  LPO in serum: 2.08 nmol/mL
  PL in serum: 117.3 mg/dL
  TC in serum: 188.4 mg/dL
  TG in serum: 60.4 mg/dL

## CCC(=O)Oc1ccc(C=C(C)C(=O)OC2CCC34CC35CCC3(C)C(C(C)CCC=C(C)C)CCC3(C)C5CCC4C2(C)C)cc1OC (stereo not drawn) [Example 113, cycloartenyl ester of 3-methoxy-4-propionyloxy-α-methyl cinnamic acid]
[2]; read-out: AI % of diff.
  change in vivo at 1 % in diet: -63.5%
[2]; read-out: HDL-C % of diff.
  change in vivo at 1 % in diet: 55.6%
[2]; read-out: LPO % of diff.
  change in vivo at 1 % in diet: -12.1%
[2]; read-out: PL % of diff.
  change in vivo at 1 % in diet: -29.7%
[2]; read-out: TG % of diff.
  change in vivo at 1 % in diet: -25.7%
[2]
  TG % of diff. (Table 20): -39.4%
  TG Diff. (Table 20): -164.7 mg/dL
  AI Diff.: -15.96
  HDL-C Diff.: +8.9 mg/dl
  LPO Diff.: -0.42 nmol/mL
  PL Diff.: -52.5 mg/dL
  TG Diff.: -20.9 mg/dL

## COc1ccc([N+](=O)[O-])cc1C(=O)OC1CCC23CC24CCC2(C)C(C(C)CCC=C(C)C)CCC2(C)C4CCC3C1(C)C (centres unmarked) [Example 170, cycloartenyl ester of 2-methoxy-5-nitrobenzoic acid]
[2]; read-out: AI % of diff.
  change in vivo at 1 % in diet: -74.9%
[2]; read-out: HDL-C % of diff.
  change in vivo at 1 % in diet: 123%
[2]; read-out: LPO % of diff.
  change in vivo at 1 % in diet: -14.1%
[2]; read-out: PL % of diff.
  change in vivo at 1 % in diet: -28.9%
[2]; read-out: TG % of diff.
  change in vivo at 1 % in diet: -21.9%
[2]
  TG % of diff. (Table 20): -37.5%
  TG Diff. (Table 20): -157.0 mg/dL
  AI Diff.: -18.83
  HDL-C Diff.: +19.7 mg/dl
  LPO Diff.: -0.49 nmol/mL
  PL Diff.: -51.1 mg/dL
  TG Diff.: -17.8 mg/dL
  HDL-C rise compared with normal diet group: remarkable rises

## COc1cc(C=CC(=O)OC2CCC34CC35CCC3(C)C(C(C)CCC(C)=C(C)C)CCC3(C)C5CCC4C2(C)C)ccc1N (centres unmarked) [Example 178, Cyclobranyl ester of 4-amino-3-methoxycinnamic acid]
[2]; read-out: AI % of diff.
  change in vivo at 1 % in diet: -88.9%
[2]; read-out: HDL-C % of diff.
  change in vivo at 1 % in diet: 215%
[2]; read-out: LPO % of diff.
  change in vivo at 1 % in diet: -36.6%
[2]; read-out: PL % of diff.
  change in vivo at 1 % in diet: -28.2%
[2]; read-out: TG % of diff.
  change in vivo at 1 % in diet: -28%
[2]
  TG % of diff. (Table 20): -54.2%
  TG Diff. (Table 20): -226.9 mg/dL
  AI Diff.: -22.35
  HDL-C Diff.: +34.4 mg/dl
  LPO Diff.: -1.27 nmol/mL
  PL Diff.: -49.8 mg/dL
  TG Diff.: -22.8 mg/dL
  HDL-C rise compared with normal diet group: remarkable rises
